Source: paper PMC5218480 (PLoS ONE, 2017)

Test system: MV-4-11 cells
Assay: Gene expression microarray analysis (Affymetrix PrimeView) and GSEA
Format: cell-based, human
Design: RFU PODN (11730768_x_at) / Fold change /veh PODN (11730768_x_at) / RFU LINC00158 (11744669_a_at) / Fold change /veh LINC00158 (11744669_a_at) / RFU DUSP10 (11751237_a_at) / Fold change /veh DUSP10 (11751237_a_at) / RFU ID3 (11757404_x_at) / Fold change /veh ID3 (11757404_x_at) / RFU PLEKHG5 (11737974_s_at) / Fold change /veh PLEKHG5 (11737974_s_at) / RFU LRRC4B (11730491_at) / Fold change /veh LRRC4B (11730491_at) / RFU GIMAP4 (11747438_a_at) / Fold change /veh GIMAP4 (11747438_a_at) / RFU KRT8 (11758183_x_at) / Fold change /veh KRT8 (11758183_x_at) / RFU CNN1 (11734310_a_at) / Fold change /veh CNN1 (11734310_a_at) / RFU VPS37D (11726825_at) / Fold change /veh VPS37D (11726825_at) / RFU C10orf10 (11716522_x_at) / Fold change /veh C10orf10 (11716522_x_at) / RFU KIR2DL2 /// KIR2DL4 /// KIR2DL5A /// KIR2DL5B /// KIR2DS1 /// KIR2DS2 /// KIR2DS3 /// KIR2DS4 /// KIR3DL3 /// KIR3DL3 /// KIR3DS1 (11738374_at) / Fold change /veh KIR2DL2 /// KIR2DL4 /// KIR2DL5A /// KIR2DL5B /// KIR2DS1 /// KIR2DS2 /// KIR2DS3 /// KIR2DS4 /// KIR3DL3 /// KIR3DL3 /// KIR3DS1 (11738374_at) / RFU C1QL1 (11718748_at) / Fold change /veh C1QL1 (11718748_at) / RFU TMPRSS4 (11747572_a_at) / Fold change /veh TMPRSS4 (11747572_a_at) / RFU HAMP (11756126_x_at) / Fold change /veh HAMP (11756126_x_at) / RFU RNFT2 (11725882_a_at) / Fold change /veh RNFT2 (11725882_a_at) / RFU NR4A2 (11747474_a_at) / Fold change /veh NR4A2 (11747474_a_at) / RFU ABCC12 (11746883_a_at) / Fold change /veh ABCC12 (11746883_a_at) / RFU TMEM136 (11760407_x_at) / Fold change /veh TMEM136 (11760407_x_at) / RFU CLDN22 /// WWC2 (11732394_at) / Fold change /veh CLDN22 /// WWC2 (11732394_at) / RFU HLA-DPB1 (11760878_x_at) / Fold change /veh HLA-DPB1 (11760878_x_at) / RFU SPINT1 (11716480_a_at) / Fold change /veh SPINT1 (11716480_a_at) / RFU GAP43 (11754022_s_at) / Fold change /veh GAP43 (11754022_s_at) / RFU A4GNT (11735810_at) / Fold change /veh A4GNT (11735810_at) / RFU PRB3 (11715151_x_at) / Fold change /veh PRB3 (11715151_x_at) / RFU TUBB4B (11761932_at) / Fold change /veh TUBB4B (11761932_at) / RFU CAPN14 (11732068_a_at) / Fold change /veh CAPN14 (11732068_a_at) / RFU TMCC2 (11721928_a_at) / Fold change /veh TMCC2 (11721928_a_at) / RFU IRGQ (11745062_a_at) / Fold change /veh IRGQ (11745062_a_at) / RFU FAM174B (11720279_a_at) / Fold change /veh FAM174B (11720279_a_at) / RFU TMPRSS4 (11748680_a_at) / Fold change /veh TMPRSS4 (11748680_a_at) / RFU FAM212B (11763350_a_at) / Fold change /veh FAM212B (11763350_a_at) / RFU PLEKHG5 (11743358_a_at) / Fold change /veh PLEKHG5 (11743358_a_at) / RFU ZSCAN30 (11745921_a_at) / Fold change /veh ZSCAN30 (11745921_a_at) / RFU CMKLR1 (11741424_a_at) / Fold change /veh CMKLR1 (11741424_a_at) / RFU LOC101060620 /// MAPK8IP1 (11723275_at) / Fold change /veh LOC101060620 /// MAPK8IP1 (11723275_at) / RFU SPTSSB (11747773_x_at) / Fold change /veh SPTSSB (11747773_x_at) / RFU PRSS12 (11739890_at) / Fold change /veh PRSS12 (11739890_at) / RFU BIN1 (11741810_x_at) / Fold change /veh BIN1 (11741810_x_at) / RFU WNT11 (11732464_a_at) / Fold change /veh WNT11 (11732464_a_at) / RFU C10orf10 (11716521_a_at) / Fold change /veh C10orf10 (11716521_a_at) / RFU C5orf56 (11738089_at) / Fold change /veh C5orf56 (11738089_at) / RFU CYB561 (11721691_x_at) / Fold change /veh CYB561 (11721691_x_at) / RFU ANKRD19P (11752326_a_at) / Fold change /veh ANKRD19P (11752326_a_at) / RFU OR2T12 /// OR2T33 /// OR2T8 (11738714_s_at) / Fold change /veh OR2T12 /// OR2T33 /// OR2T8 (11738714_s_at) / RFU VCAN (11748164_a_at) / Fold change /veh VCAN (11748164_a_at) / RFU JSRP1 (11732532_at) / Fold change /veh JSRP1 (11732532_at) / RFU KRTAP10-11 (11738290_x_at) / Fold change /veh KRTAP10-11 (11738290_x_at) / RFU MYO3A (11730013_a_at) / Fold change /veh MYO3A (11730013_a_at) / RFU EBF3 (11725865_a_at) / Fold change /veh EBF3 (11725865_a_at) / RFU CAMK2N1 (11719241_x_at) / Fold change /veh CAMK2N1 (11719241_x_at) / RFU C5orf56 (11738088_a_at) / Fold change /veh C5orf56 (11738088_a_at) / RFU OLFML3 (11715873_a_at) / Fold change /veh OLFML3 (11715873_a_at) / RFU LOC100653217 /// NTM (11731650_a_at) / Fold change /veh LOC100653217 /// NTM (11731650_a_at) / RFU MAPK11 (11762145_a_at) / Fold change /veh MAPK11 (11762145_a_at) / RFU FIZ1 (11724087_x_at) / Fold change /veh FIZ1 (11724087_x_at) / RFU OASL (11726364_x_at) / Fold change /veh OASL (11726364_x_at) / RFU SOX15 (11748057_x_at) / Fold change /veh SOX15 (11748057_x_at) / RFU CD79A (11719716_a_at) / Fold change /veh CD79A (11719716_a_at) / RFU HIST1H1D (11736915_at) / Fold change /veh HIST1H1D (11736915_at) / RFU CASKIN2 (11723855_a_at) / Fold change /veh CASKIN2 (11723855_a_at) / RFU LOC730098 (11760151_x_at) / Fold change /veh LOC730098 (11760151_x_at) / RFU OR4N2 (11742367_at) / Fold change /veh OR4N2 (11742367_at) / RFU PRRT2 (11749266_a_at) / Fold change /veh PRRT2 (11749266_a_at) / RFU SNX32 (11753110_a_at) / Fold change /veh SNX32 (11753110_a_at) / RFU CDHR5 (11726645_a_at) / Fold change /veh CDHR5 (11726645_a_at) / RFU RCAN1 (11760418_a_at) / Fold change /veh RCAN1 (11760418_a_at) / RFU FAM167A (11723789_a_at) / Fold change /veh FAM167A (11723789_a_at) / RFU FAM26E (11764081_at) / Fold change /veh FAM26E (11764081_at) / RFU ISYNA1 (11749810_s_at) / Fold change /veh ISYNA1 (11749810_s_at) / RFU ACY1 (11761880_at) / Fold change /veh ACY1 (11761880_at) / RFU 11764098_at / Fold change /veh 11764098_at / RFU SAMD14 (11745864_x_at) / Fold change /veh SAMD14 (11745864_x_at) / RFU NPB (11741838_a_at) / Fold change /veh NPB (11741838_a_at) / RFU TMPRSS6 (11731388_a_at) / Fold change /veh TMPRSS6 (11731388_a_at) / RFU KRTAP10-2 (11738614_at) / Fold change /veh KRTAP10-2 (11738614_at) / RFU ARHGAP8 /// PRR5-ARHGAP8 (11727945_x_at) / Fold change /veh ARHGAP8 /// PRR5-ARHGAP8 (11727945_x_at) / RFU KRTAP5-7 /// NADSYN1 (11734609_at) / Fold change /veh KRTAP5-7 /// NADSYN1 (11734609_at) / RFU RASL12 (11751679_a_at) / Fold change /veh RASL12 (11751679_a_at) / RFU CDKN2B (11736163_a_at) / Fold change /veh CDKN2B (11736163_a_at) / RFU PRF1 (11729649_at) / Fold change /veh PRF1 (11729649_at) / RFU, ZNF638 /// ZNF638-IT1 / Fold change vs veh, ZNF638 /// ZNF638-IT1 / RFU, PANK3 / Fold change vs veh, PANK3 / RFU, SH3YL1 / Fold change vs veh, SH3YL1 / RFU, ZEB2 / Fold change vs veh, ZEB2 / RFU, NRIP1 / Fold change vs veh, NRIP1 / RFU, PTTG1IP / Fold change vs veh, PTTG1IP / RFU, CAPN2 / Fold change vs veh, CAPN2 / RFU, MED14 / Fold change vs veh, MED14 / RFU, SNORA58 / Fold change vs veh, SNORA58 / RFU, C1orf63 / Fold change vs veh, C1orf63 / RFU, LRRFIP1 / Fold change vs veh, LRRFIP1 / RFU, NDUFAF7 / Fold change vs veh, NDUFAF7 / RFU, SLC12A2 / Fold change vs veh, SLC12A2 / RFU, IBTK / Fold change vs veh, IBTK / RFU, ESF1 / Fold change vs veh, ESF1 / Fold change vs veh, TMEM50B / RFU, TAOK1 / Fold change vs veh, TAOK1 / RFU, ACBD3 / Fold change vs veh, ACBD3 / RFU, TMA16 / Fold change vs veh, TMA16 / RFU, RWDD3 / Fold change vs veh, RWDD3 / RFU, BCAT1 / Fold change vs veh, BCAT1 / RFU, EDEM3 / Fold change vs veh, EDEM3 / RFU, TMEM33 / Fold change vs veh, TMEM33 / RFU, WDR75 / Fold change vs veh, WDR75 / RFU, AHCTF1 / Fold change vs veh, AHCTF1 / RFU, TFRC / Fold change vs veh, TFRC / RFU, ZDHHC17 / Fold change vs veh, ZDHHC17 / RFU, NOM1 / Fold change vs veh, NOM1 / RFU, ARL8B / Fold change vs veh, ARL8B / RFU, ZBTB11 / Fold change vs veh, ZBTB11 / RFU, TAMM41 / Fold change vs veh, TAMM41 / RFU, KIAA1704 /// LOC100996395 / Fold change vs veh, KIAA1704 /// LOC100996395 / RFU, ING1 / Fold change vs veh, ING1 / RFU, TRMT61B / Fold change vs veh, TRMT61B / RFU, FUBP3 / Fold change vs veh, FUBP3 / RFU, TP53 / Fold change vs veh, TP53 / RFU, TNKS2 / Fold change vs veh, TNKS2 / RFU, ZFP14 / Fold change vs veh, ZFP14 / RFU, ACTR2 / Fold change vs veh, ACTR2 / RFU, PPP3R1 / Fold change vs veh, PPP3R1 / RFU, PIK3R1 / Fold change vs veh, PIK3R1 / RFU, HNRNPA1 / Fold change vs veh, HNRNPA1 / RFU, RNF170 / Fold change vs veh, RNF170 / RFU, ZNF28 / Fold change vs veh, ZNF28 / RFU, RNGTT / Fold change vs veh, RNGTT / RFU, OGT / Fold change vs veh, OGT / RFU, BRD1 / Fold change vs veh, BRD1 / RFU, MARS / Fold change vs veh, MARS / RFU, ZNF655 / Fold change vs veh, ZNF655 / RFU, FAHD1 / Fold change vs veh, FAHD1 / RFU, BDP1 / Fold change vs veh, BDP1 / RFU, LRRCC1 / Fold change vs veh, LRRCC1 / RFU, ARID1A / Fold change vs veh, ARID1A / RFU, ZNF146 / Fold change vs veh, ZNF146 / RFU, ZNF330 / Fold change vs veh, ZNF330 / RFU, GPN3 / Fold change vs veh, GPN3 / RFU, C9orf123 / Fold change vs veh, C9orf123 / RFU, N4BP2L2 / Fold change vs veh, N4BP2L2 / RFU, ARFIP1 / Fold change vs veh, ARFIP1 / RFU, FAM179B / Fold change vs veh, FAM179B / RFU, BCL10 / Fold change vs veh, BCL10 / RFU, UHRF1BP1L / Fold change vs veh, UHRF1BP1L / RFU, BET1 / Fold change vs veh, BET1 / RFU, CNOT2 / Fold change vs veh, CNOT2 / RFU, ZNF268 / Fold change vs veh, ZNF268 / Fold change vs veh, ZNF507 / RFU, DGCR2 / Fold change vs veh, DGCR2 / RFU, WDSUB1 / Fold change vs veh, WDSUB1 / Fold change vs veh, HSP90B1 /// MIR3652 / RFU, ADSS / Fold change vs veh, ADSS / RFU, GK / Fold change vs veh, GK / RFU, ZNF148 / Fold change vs veh, ZNF148 / RFU, TAF9 / Fold change vs veh, TAF9 / RFU, SLC1A5 / Fold change vs veh, SLC1A5 / RFU, SLMO2 / Fold change vs veh, SLMO2 / RFU, ABCC4 / Fold change vs veh, ABCC4 / RFU, LOC101060439 /// RAP1B / Fold change vs veh, LOC101060439 /// RAP1B / RFU, RFX7 / Fold change vs veh, RFX7 / RFU, GTPBP10 / Fold change vs veh, GTPBP10 / RFU, CNEP1R1 / Fold change vs veh, CNEP1R1 / RFU, BIVM-ERCC5 /// ERCC5 / Fold change vs veh, BIVM-ERCC5 /// ERCC5 / RFU, ILF3 / Fold change vs veh, ILF3 / RFU 11762660_at / Fold change /veh 11762660_at / RFU VCAN (11757783_s_at) / Fold change /veh VCAN (11757783_s_at) / RFU DDX43 (11728927_at) / Fold change /veh DDX43 (11728927_at) / RFU KRT8 (11758188_x_at) / Fold change /veh KRT8 (11758188_x_at) / RFU NKD1 (11759106_at) / Fold change /veh NKD1 (11759106_at) / RFU SRD5A1 (11742802_a_at) / Fold change /veh SRD5A1 (11742802_a_at) / RFU TPSAB1 /// TPSB2 (11721975_s_at) / Fold change /veh TPSAB1 /// TPSB2 (11721975_s_at) / RFU GSTM3 (11746129_a_at) / Fold change /veh GSTM3 (11746129_a_at) / RFU IL23R (11737362_x_at) / Fold change /veh IL23R (11737362_x_at) / RFU TMEM51 (11727254_a_at) / Fold change /veh TMEM51 (11727254_a_at) / RFU PIWIL2 (11732686_x_at) / Fold change /veh PIWIL2 (11732686_x_at) / RFU ORM1 (11744905_x_at) / Fold change /veh ORM1 (11744905_x_at) / RFU CCDC152 (11743942_at) / Fold change /veh CCDC152 (11743942_at) / RFU ECM1 (11717891_a_at) / Fold change /veh ECM1 (11717891_a_at) / RFU IL23R (11748794_a_at) / Fold change /veh IL23R (11748794_a_at) / RFU TNFAIP8L3 (11732012_x_at) / Fold change /veh TNFAIP8L3 (11732012_x_at) / RFU MBOAT4 (11741988_at) / Fold change /veh MBOAT4 (11741988_at) / RFU 11764193_at / Fold change /veh 11764193_at / RFU TMEM53 (11763286_at) / Fold change /veh TMEM53 (11763286_at) / RFU MAGEB2 (11727129_at) / Fold change /veh MAGEB2 (11727129_at) / RFU TMEM200A (11744735_a_at) / Fold change /veh TMEM200A (11744735_a_at) / RFU CCDC152 (11751479_a_at) / Fold change /veh CCDC152 (11751479_a_at) / RFU FAM211A (11726209_a_at) / Fold change /veh FAM211A (11726209_a_at) / RFU RGS16 (11746705_a_at) / Fold change /veh RGS16 (11746705_a_at) / RFU VCAN (11755009_s_at) / Fold change /veh VCAN (11755009_s_at) / RFU RHOB (11743442_s_at) / Fold change /veh RHOB (11743442_s_at) / RFU RGS16 (11720943_a_at) / Fold change /veh RGS16 (11720943_a_at) / RFU RGS16 (11720944_at) / Fold change /veh RGS16 (11720944_at) / RFU, VPS4B / Fold change vs veh, VPS4B / RFU, CREB1 / Fold change vs veh, CREB1 / RFU, DNAJC13 / Fold change vs veh, DNAJC13 / RFU, GNAQ / Fold change vs veh, GNAQ / RFU, CDK5R1 / Fold change vs veh, CDK5R1 / RFU, ZRANB3 / Fold change vs veh, ZRANB3 / RFU, CUL4A / Fold change vs veh, CUL4A / RFU, CCNY / Fold change vs veh, CCNY / RFU, UFL1 / Fold change vs veh, UFL1 / RFU, COG3 / Fold change vs veh, COG3 / RFU, DIAPH2 / Fold change vs veh, DIAPH2 / RFU, SKA2 / Fold change vs veh, SKA2 / RFU, AFF3 / Fold change vs veh, AFF3 / RFU, LMF1 / Fold change vs veh, LMF1 / RFU, IPO11 / Fold change vs veh, IPO11 / RFU, DFFB / Fold change vs veh, DFFB / RFU, FOXP1 / Fold change vs veh, FOXP1 / RFU, CARD8 / Fold change vs veh, CARD8 / RFU, STRN3 / Fold change vs veh, STRN3 / RFU, ADK / Fold change vs veh, ADK / RFU, RASSF2 / Fold change vs veh, RASSF2 / RFU, WIPF1 / Fold change vs veh, WIPF1 / RFU, LARP1B / Fold change vs veh, LARP1B / RFU, RASA1 / Fold change vs veh, RASA1 / RFU, RB1 / Fold change vs veh, RB1 / RFU, PPFIA1 / Fold change vs veh, PPFIA1 / RFU, MAT2A / Fold change vs veh, MAT2A / RFU, CCT5 / Fold change vs veh, CCT5 / RFU, WDR92 / Fold change vs veh, WDR92 / RFU, CUX1 / Fold change vs veh, CUX1 / RFU, TTC7A / Fold change vs veh, TTC7A / RFU, TMEM135 / Fold change vs veh, TMEM135 / RFU, DEPTOR / Fold change vs veh, DEPTOR / RFU, CPM / Fold change vs veh, CPM / RFU, DNAJB6 / Fold change vs veh, DNAJB6 / RFU, CACNA2D3 / Fold change vs veh, CACNA2D3 / RFU, DTX4 / Fold change vs veh, DTX4 / RFU, TFCP2 / Fold change vs veh, TFCP2 / RFU, GMCL1 /// GMCL1P1 / Fold change vs veh, GMCL1 /// GMCL1P1 / RFU, AEBP2 / Fold change vs veh, AEBP2 / RFU, SNHG1 /// SNORD22 /// SNORD25 /// SNORD26 /// SNORD27 /// SNORD28 /// SNORD29 /// SNORD31 / Fold change vs veh, SNHG1 /// SNORD22 /// SNORD25 /// SNORD26 /// SNORD27 /// SNORD28 /// SNORD29 /// SNORD31 / Fold change (Aza/veh), C12orf56 (ProbeSet 11735607_a_at) / Fold change (ACY-1035/veh), C12orf56 (ProbeSet 11735607_a_at) / Fold change (Aza/veh), FGFR1OP (ProbeSet 11751329_s_at) / Fold change (ACY-1035/veh), FGFR1OP (ProbeSet 11751329_s_at) / Fold change (Aza/veh), VPS36 (ProbeSet 11739960_a_at) / Fold change (ACY-1035/veh), VPS36 (ProbeSet 11739960_a_at) / RFU SYPL1 (11715823_x_at) / Fold change /veh SYPL1 (11715823_x_at) / RFU IGFBP7 (11715501_s_at) / Fold change /veh IGFBP7 (11715501_s_at) / RFU REEP3 (11722064_at) / Fold change /veh REEP3 (11722064_at) / RFU IGLL1 (11728026_x_at) / Fold change /veh IGLL1 (11728026_x_at): dose or concentration left out as unconfirmed
Conditions: MV-4-11 cells, 48 hours

Nc1ncn([C@@H]2O[C@H](CO)[C@@H](O)[C@H]2O)c(=O)n1 [azacitidine]
RFU CLDN22 /// WWC2 (11732394_at): 8.78 RFU
